According to patent publication US20110152166A1, “METHOD OF MODULATION OF PROTEIN PHOSPHORYLATION-DEPENDENT CONFORMATIONAL TRANSITIONS WITH LOW MOLECULAR WEIGHT COMPOUNDS” (priority 2006, published 2011):
Each block holds one substance with its values, some of them ahead of it. Ends that are not written are not given here.

What was measured:
GST-S6K11-365 [1] = assay: Surface plasmon resonance, S6K1 binding to tail peptides; parameters: species or system rat; settings: K144N versus wt
Procedure: (§1) FIG. 13. The tail phosphate synergistically enhances the ability of the HM phosphate to activate S6K, dependent on the tail phosphate-binding site. (A) The kinase activity of purified kinase domain of S6K1 (S6K11-364), pre-phosphorylated by PDK1 in the activation loop, was determined in the presence of increasing concentrations of synthetic S6K1 tail peptide (residues 366-395) that was either non-phosphorylated (S371/T389), phosphorylated at Ser371 (pS371/T389) or Thr389 (5371/pT389) or phosphorylated at both sites (pS371/pT389). (B) The kinase activity of S6K11-364 and S6K11-364K144N, either pre-phosphorylated or not by PDK1, was determined in the absence or presence of 90 μM S371/pT389 or pS371/pT389. (C) pS371/pT389 S6K1 tail peptide was biotinylated and used to coat streptavidin Sensor Chips. The chips were thereafter analyzed for binding to purified GST-S6K11-365 or GST-56K11-365K144N. (A-C) Experiments were repeated at least 3 times and activity data (expressed as percent) are means±SD.
(§2) Sixty 146 cm^2 dishes with COST cells were co-transfected with pEBG-2T-S6K1-365 and pCMV5-myc-PDK1 (ratio 3:1) using calcium phosphate precipitation or with pEBG-2T-PKCζ and pCMV5-myc-PDK1 (ratio 3:1) using Fugene HD according to the manufacturers Instructions. Two days after transfection, the cells were harvested in lysis buffer as described above. […]

GST-PDK1 [Phe157Leu] = target: T1, GST-PDK1 [Phe157Leu] (Homo sapiens, UniProt O15530, F157L); assay: PDK1 activity assay with T308tide; format: biochemical
T1 construct: different protein constructs, comprising the full length protein or the catalytic domain alone; made in house; host or cells: HEK293 cells (pEBG-2T-PDK1 mutant)

GST-S6K11-365 [2] = target: GST-S6K11-365 (Rattus norvegicus, UniProt P67999); assay: Surface plasmon resonance, S6K1 binding to tail peptides; parameters: made in house; host or cells: COS cells (printed 'COST'), co-transfected with pCMV5-myc-PDK1
Procedure: as §1, §2

T1 sequence (O15530 whole entry F157L, the tested form may be a part): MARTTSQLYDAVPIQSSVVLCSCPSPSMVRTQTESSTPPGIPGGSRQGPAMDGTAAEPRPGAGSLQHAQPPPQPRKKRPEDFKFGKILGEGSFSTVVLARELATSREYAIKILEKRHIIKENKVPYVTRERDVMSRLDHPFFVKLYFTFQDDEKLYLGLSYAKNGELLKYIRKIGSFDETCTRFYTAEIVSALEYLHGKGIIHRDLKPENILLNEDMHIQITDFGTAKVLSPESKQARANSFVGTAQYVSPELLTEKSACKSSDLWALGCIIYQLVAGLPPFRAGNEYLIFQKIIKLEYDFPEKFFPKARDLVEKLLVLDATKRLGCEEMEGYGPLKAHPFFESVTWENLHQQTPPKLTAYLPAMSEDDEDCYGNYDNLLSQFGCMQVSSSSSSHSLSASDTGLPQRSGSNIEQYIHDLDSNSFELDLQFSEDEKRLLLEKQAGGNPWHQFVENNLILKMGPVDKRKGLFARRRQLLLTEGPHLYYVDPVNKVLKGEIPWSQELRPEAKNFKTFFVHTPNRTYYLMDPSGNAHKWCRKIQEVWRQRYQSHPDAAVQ
GST-S6K11-365 (Rattus norvegicus, UniProt P67999), sequence (P67999 24-388): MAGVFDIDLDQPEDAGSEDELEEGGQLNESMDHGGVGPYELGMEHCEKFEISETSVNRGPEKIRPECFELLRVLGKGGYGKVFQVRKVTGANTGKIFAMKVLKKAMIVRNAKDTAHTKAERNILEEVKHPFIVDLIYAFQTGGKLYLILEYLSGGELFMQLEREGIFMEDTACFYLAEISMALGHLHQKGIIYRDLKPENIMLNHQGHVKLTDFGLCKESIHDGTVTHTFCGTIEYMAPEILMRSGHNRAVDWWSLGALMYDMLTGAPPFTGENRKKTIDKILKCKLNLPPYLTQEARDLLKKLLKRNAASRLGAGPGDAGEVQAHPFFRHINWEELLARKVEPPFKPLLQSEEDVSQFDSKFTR

decrease of binding of S6K11-365 to peptide by the K144N mutation (GST-S6K11-365 [1]): no effect
Substance: S371/pT389: synthetic S6K1 tail peptide (residues 366-395) phosphorylated in the HM

AC50 (GST-PDK1 [Phe157Leu]): 320 ± 190 nM
Max. activity (GST-PDK1 [Phe157Leu]): 1.4 ± 0.14 U/mg
Substance: REPRILSEEEQEMFRDFDYIADWC [PIFtide, reference compound]

specific binding of S6K11-365 or S6K11-365K144N (in words) (GST-S6K11-365 [2]): No specific binding
Substance: S371/T389: synthetic S6K1 tail peptide (residues 366-395), non-phosphorylated
